Source: ChEMBL document CHEMBL4483862, “Open-source discovery of chemical leads for next-generation chemoprotective antimalarials” (2018)

System: Plasmodium berghei
Test: Luciferase/luciferin-expressing antifolate-resistant parasites were used to infect a culture of HepG2 cells that were pre-incubated with compounds. Infected hepatocytes emit light due to the luciferase reaction. Assay results are presented as the percent inhibition of light emission compared to control. […]
Format: functional
Settings: sporozoite; for IC90: read-out: LUCIFERASE INFECTION ASSAY - IC90
[1] = read-out: LUCIFERASE INFECTION ASSAY - IC50

Molecule `O=C(Nc1nc(-c2ccccn2)cs1)c1nn(-c2ccc(F)cc2)c2c1CCCC2` has an IC50 (PBLUC_HILL_SLOPE 4.43, PBLUC_R_SQUARED 0.595, read-out: LUCIFERASE INFECTION ASSAY - IC50) of 5.45 µM and an IC90 of 8.94 µM.
With `COc1ccc2c(c1)C(=O)C(=O)N2Cc1ccccc1Cl` the IC50 (FFLUC_HILL_SLOPE 0.896, FFLUC_R_SQUARED 0.182, read-out: LUCIFERASE INFECTION ASSAY - IC50) was over 10.9 µM and the IC90 was over 10.9 µM.
Work on `CN(C)CCCNc1nc2sc3c(c2c(=O)n1-c1ccccc1)CCCCC3` yielded an IC50 [1] of over 8.32 µM and an IC90 of over 8.32 µM.
`CCOCCSc1nc(-c2ccccc2)c(-c2ccccc2)[nH]1` was tested, and the IC50 (HEPG2TOX_HILL_SLOPE 2.32, HEPG2TOX_R_SQUARED 0.811, read-out: LUCIFERASE INFECTION ASSAY - IC50) was over 10 µM and the IC90 was over 10 µM.
For `O=C(Nc1nc(CN2CCOCC2)cs1)c1ccc(-c2ccccc2)cc1`, the IC50 (HEPG2TOX_HILL_SLOPE 0.446, HEPG2TOX_R_SQUARED 0.661, PBLUC_HILL_SLOPE 0.824, PBLUC_R_SQUARED 0.624, read-out: LUCIFERASE INFECTION ASSAY - IC50) was 0.817 µM and the IC90 was over 10 µM.
Work on `O=C(Nc1nc2ccccc2[nH]1)c1cn(-c2ccccc2C(F)(F)F)nn1` yielded an IC50 (FFLUC_HILL_SLOPE 2.58, FFLUC_R_SQUARED 0.587, PBLUC_HILL_SLOPE 2.16, PBLUC_R_SQUARED 0.829, read-out: LUCIFERASE INFECTION ASSAY - IC50) of 5.53 µM and an IC90 of over 10 µM.
With `Cc1cc(C)c(-c2csc(NC(=O)c3nnc(O)c4ccccc34)n2)c(C)c1` the IC50 [1] was 3.82 µM and the IC90 was 5.46 µM.
Work on `CC1CCN(Cc2nc3scc(-c4ccccc4)c3c(=O)n2CC(=O)N2CCc3ccccc32)CC1` yielded an IC50 [1] of over 10 µM and an IC90 of over 10 µM.
Molecule `Cc1cc(C)nc(N/N=C/c2cn(-c3ccccc3)nc2-c2ccc3c(c2)OCCO3)n1` has an IC50 (HEPG2TOX_HILL_SLOPE 17.9, HEPG2TOX_R_SQUARED 0.773, PBLUC_HILL_SLOPE 3.73, PBLUC_R_SQUARED 0.671, read-out: LUCIFERASE INFECTION ASSAY - IC50) of 5.18 µM and an IC90 of 9.32 µM.
`CCN(CC)CCn1c(NC(=O)c2cc(C(C)=O)c[nH]2)nc2ccccc21` gave an IC50 [1] of 1.82 µM and an IC90 of over 10 µM.
`CCCc1cc(=O)nc(SCC(=O)C23CC4CC(CC(C4)C2)C3)[nH]1` was tested, and the IC50 (PBLUC_HILL_SLOPE 3.05, PBLUC_R_SQUARED 0.0755, read-out: LUCIFERASE INFECTION ASSAY - IC50) was 4.7 µM and the IC90 was 9.67 µM.
Work on `Cc1cc(C(=O)COc2ccc(CC(=O)O)cc2)c(C)n1CCC(C)C` yielded an IC50 (PBLUC_HILL_SLOPE 4.94, 3.04, PBLUC_R_SQUARED 0.440, 0.373, read-out: LUCIFERASE INFECTION ASSAY - IC50) of 5.4 µM and an IC90 of 7.13 µM.
`Cc1cc(SCC(=O)NNC(=O)c2ccc(NS(=O)(=O)c3cccs3)cc2)nc2ccccc12` gave an IC50 [1] of over 10 µM and an IC90 of over 10 µM.
Work on `CCc1ccc(-c2nc(Cn3cnc4ccccc4c3=O)cs2)cc1` yielded an IC50 [1] of over 10 µM and an IC90 of over 10 µM.
Work on `CC(=O)NCc1ccc(-c2csc(NC(=O)CCc3ccco3)n2)cc1` yielded an IC50 [1] of over 10 µM and an IC90 of over 10 µM.
Molecule `CN(C)CCNC(=O)c1cccc(-c2cnc3ccc(-c4ccc(F)cc4)nn23)c1` has an IC50 (HEPG2TOX_HILL_SLOPE 10.3, HEPG2TOX_R_SQUARED 0.505, PBLUC_HILL_SLOPE 2.09, PBLUC_R_SQUARED 0.253, read-out: LUCIFERASE INFECTION ASSAY - IC50) of 4.88 µM and an IC90 of over 10 µM.
Work on `CC(=O)Nc1ccc(-c2cnc3ccc(-c4ccoc4)nn23)cc1` yielded an IC50 [1] of 3.52 µM and an IC90 of 4.31 µM.
`COc1cc2c(cc1NC(=O)C1CCCN(S(=O)(=O)c3ccc(F)cc3)C1)oc1ccccc12` (stereo unspecified) showed an IC50 [1] of over 10 µM and an IC90 of over 10 µM.
For `CCOc1cccc(-c2cn3c(-c4ccc5ncccc5c4)cnc3cn2)c1`, the IC50 (HEPG2TOX_HILL_SLOPE 1.97, HEPG2TOX_R_SQUARED 0.663, PBLUC_HILL_SLOPE 2.12, PBLUC_R_SQUARED 0.862, read-out: LUCIFERASE INFECTION ASSAY - IC50) was 0.0341 µM and the IC90 was 0.0959 µM.
`O=S(=O)(c1ccc(N=C2NN=C(c3ccc4ccccc4c3)CS2)cc1)N1CCOCC1` gave an IC50 [1] of 4.82 µM and an IC90 of 9.33 µM.
For `CCNC(=O)N1CCc2nc(Nc3cc(C)cc(C)c3)ncc2C1`, the IC50 [1] was over 10.1 µM and the IC90 was over 10.1 µM.
`COc1cccc(-n2c(C)cc(C(=O)CSc3ncc(C#N)c(N)n3)c2C)c1` gave an IC50 [1] of over 8.39 µM and an IC90 of over 8.39 µM.
Molecule `Cc1ccc(-n2c(C)cc(/C=C(\C#N)c3nc4ccccc4s3)c2C)cc1C` has an IC50 [1] of over 10 µM and an IC90 of over 10 µM.
In the case of `COc1cc(Nc2ncnc3ccsc23)cc(OC)c1`, the IC50 [1] is reported as 0.968 µM and the IC90 is reported as 2.61 µM.
`CC(=O)Nc1ccc(-c2cnc3ccc(Cc4ccc(F)cc4)nn23)cc1` was tested, and the IC50 (PBLUC_HILL_SLOPE 11.9, PBLUC_R_SQUARED 0.515, read-out: LUCIFERASE INFECTION ASSAY - IC50) was 1.17 µM and the IC90 was 1.41 µM.
Molecule `Cc1onc(-c2ccccc2Cl)c1NC(=O)Nc1cc(C(F)(F)F)cc(C(F)(F)F)c1` has an IC50 (PBLUC_HILL_SLOPE 3.23, PBLUC_R_SQUARED 0.494, read-out: LUCIFERASE INFECTION ASSAY - IC50) of 3.3 µM and an IC90 of 6.51 µM.
`CN(C)CCNC(=O)c1cccc(-c2cnc3c(NC=O)cc(-c4cccc(C(F)(F)F)c4)cn23)c1` gave an IC50 [1] of over 6.66 µM and an IC90 of over 6.66 µM.
`CCCNC(=O)c1c(NC(=O)c2ccc(C(F)(F)F)cc2)nc2ccc(C)cn12` showed an IC50 (FFLUC_HILL_SLOPE 11.2, FFLUC_R_SQUARED 0.698, HEPG2TOX_HILL_SLOPE 0.884, HEPG2TOX_R_SQUARED 0.902, PBLUC_HILL_SLOPE 2.26, PBLUC_R_SQUARED 0.742, read-out: LUCIFERASE INFECTION ASSAY - IC50) of 0.419 µM and an IC90 of 1.11 µM.
`O=C(CCc1nc2ccccc2s1)N(Cc1ccccc1F)C1CC1` gave an IC50 [1] of over 10 µM and an IC90 of over 10 µM.
`CCN(CC)S(=O)(=O)c1ccc(C(=O)Nc2ccc(C34CC5CC(CC(O)(C5)C3)C4)cc2)cc1` showed an IC50 [1] of over 10 µM and an IC90 of over 10 µM.
Molecule `O=c1c2ccccc2nc(SCc2cn3cc(Cl)ccc3n2)n1-c1ccccc1F` has an IC50 (PBLUC_HILL_SLOPE 16.9, PBLUC_R_SQUARED 0.0163, read-out: LUCIFERASE INFECTION ASSAY - IC50) of 8.93 µM and an IC90 of over 10 µM.
Molecule `Clc1ccccc1-c1cn2c(-c3ccncc3)cnc2cn1` has an IC50 (PBLUC_HILL_SLOPE 5.69, PBLUC_R_SQUARED 0.296, read-out: LUCIFERASE INFECTION ASSAY - IC50) of 10.2 µM and an IC90 of over 10.8 µM.
Work on `Cc1ccccc1CNc1ncnc2sccc12` yielded an IC50 [1] of 5.22 µM and an IC90 of over 10 µM.
